{"source": "patent US20210115406A1", "about": "“HOST-BIOME INTERACTIONS” (EMULATE, INC., priority 2018, published 2021)", "key": {"[1]": {"system": "Airway cells", "assay": "Permeability of airway cells to Imipenem on Airway chip", "format": "cell-based", "conditions": "at lower concentrations", "description": "More specifically, in one embodiment of an Airway on-chip, duplicate chips are infected with PA 5919 WT or PA 5890 Mutant as described herein. Then, Imipenem is added to apical and basolateral fluids (cell media) for treatment with Imipenem at 50, 100 and 500 μg/ml for 24 hours with at least one chip without Imipenem. At 24 h post treatment, wash cells 3× to remove the test drug, i.e. antibiotic Imipenem. Cells lysed with 1% Triton for 10 minutes on chip, then the lyste is collected from the chip's channels. Lysates are serially diluted for CFU quantification. N=2\nAssay readouts: Viability of extracellular bacteria (apical sampling). Viability of intracellular bacteria (cell lysis and sampling). Two-way ANOVA with Dunnett's post-test **<0.05, **<0.001 (compared to untreated)."}, "[2]": {"system": "Lamina Propria Immune Cells", "assay": "Steroidal treatment of lamina propria immune cells on Intestine-Chip", "format": "cell-based, human", "conditions": "10 μM (10X clinically relevant dosage); before and after challenge with PAM2CSK4; ulcerative colitis patients"}, "[3]": {"system": "Airway On-Chip cells", "assay": "TUNEL apoptosis staining on Airway On-Chip", "format": "cell-based", "conditions": "3 μM for 3 h at 37° C., positive control", "description": "One embodiment of an Airway On-Chip is infected as described above for 2 hours and then treated 50 μg/ml tetracycline for 24 h (top and bottom channels under flow) for 24 h in order to limit bacterial replication (to avoid over-replication and cell lifting). Using this methodology, we performed longer infections on an airway chip and avoided cell death at 24 h. At 24 h, chips are fixed with 4% paraformaldehyde for 15 minutes and subsequently permeabilized with 0.25% triton in PBS. Apoptosis staining is performed following the Click-iT™ Plus TUNEL Assay for In Situ Apoptosis Detection, Alexa Fluor 647 assay: Click-iT™ Plus TUNEL Assay, Thermo Fisher Scientific Inc., 6 November 2017.\nThe TUNEL assay is based on the incorporation of modified dUTPs by the enzyme terminal deoxynucleotidyl transferase (TdT) at the 3′-OH ends of fragmented DNA, a hallmark as well as the ultimate determinate of apoptosis. Click-iT™ Plus TUNEL assay with the Alexa Fluor™ 647 dye is utilized to detect the fragment DNA (purple), nuclei are labelled with DAPI.\nStaurosporin, a prototypical ATP-competitive kinase inhibitor, is used as a positive control in this assay. […] As an additional positive control, chips are treated with 1 unit of DNAse I for 30 minutes at room temperature to induce TUNEL positive DNA strand breaks."}, "[4]": {"system": "Caco-2 Intestine-Chip", "assay": "Bacterial colonization, attachment and titration on Intestine-Chip", "format": "cell-based, human", "conditions": "SEM images of the Intestine-Chip", "text": "Top Channel: Caco-2. Day 1: Connect to flow. Day 3: Inoculation and Readouts: Imaging; Permeability; Bacterium Titer; etc. Day 8: Inflammatory Challenge. Readouts: Imaging; Permeability; Cytokines; Bacterium Titer; etc. Day 8 +4 hrs: Readouts: Imaging; Permeability; Cytokines; Bacterium Titer; etc. Day 8 +14 hrs: Readouts: Permeability; Cytokines; Effluent Titer; etc. Day 8 +14 hrs: Collect Endpoints: RNA; Immunofluorescence; Adherent Titer; etc.\nBarrier function is an indicator of epithelial cell health in the intestine. […] Each bacteria strain was added (inoculated) on chip at a concentration of 1×10^6 mL^−1.\nFIG. 44A Bacterial Titration (counts mL^−1) at Day 3 and Day 4 compared to adherent counts at Day 4.\nBacterial Titration. Viable, aerotolerant bifidobacterial strains colonized the Caco-2 Intestine-Chip and could be detected in plate Titers."}}, "data": [{"molecule": "C[C@@H](O)[C@H]1C(=O)N2C(C(=O)O)=C(SCCN=CN)C[C@H]12", "note": "[Imipenem]", "values": [{"measurement": "permeability of airway cells to the drug", "setting": "[1]", "result": "impermeable"}]}, {"molecule": "C[C@]12C=CC(=O)C=C1CC[C@@H]1[C@@H]2C(=O)C[C@@]2(C)[C@H]1CC[C@]2(O)C(=O)CO", "note": "[Prednisone]", "values": [{"measurement": "inflammatory responses", "setting": "[2]", "result": "suppresses inflammatory responses"}]}, {"molecule": "CN[C@@H]1C[C@H]2O[C@@](C)([C@@H]1OC)n1c3ccccc3c3c4c(c5c6ccccc6n2c5c31)C(=O)NC4", "note": "[staurosporin, Staurosporin]", "values": [{"measurement": "apoptotic cell numbers (TUNEL)", "setting": "[3]", "result": "increased apoptotic cell numbers"}]}, {"molecule": "Lactobacillus rhamnosus strain GG [LGG]", "values": [{"measurement": "attachment and biofilm formation", "setting": "[4]", "result": "evidence of LGG attachment and biofilm formation"}]}]}
